Measured values published in US6932990B2, “Carbohydrate absorption inhibitor and method for manufacturing the same” (Oryza Oil & Fat Chemical Co., Ltd., priority 2000, dated 2005).
≈ marks a conversion by molar mass, not a printed value. Where two headings read alike, the source gives them in different places.

How the values were obtained:
[1] = biological target: α-glucosidase (acetone powder in the intestinal canal of rat); assay: α-glucosidase inhibitory activity (4-methylumbelliferyl-α-D-glucoside, fluorometry); assay type: biochemical
Protocol: Next, α-glucosidase inhibitory activity (%) in regard to the embodiment 1 (evening primrose seed extract) was identified by the following method. As for the α-glucosidase for this measurement, 0.1 mol maleic acid buffer solution (pH 6.0) was added to the acetone powder in the intestinal canal of rat (SIGMA CHEMICAL CO.) and homogenized in ice by using a glass homogenizer, and then centrifugalized supernatant was diluted 20 times. Measuring method is shown below. […] After that, the reaction was suspended by adding 3 ml glycin buffer solution (pH 10.3) and the quantity of the isolated 4-methylumbelliferyl was determined by using a fluorometer (excitation wavelength: 366 nm & fluorescent wavelength: […]). Enzyme activity was calculated based on this determined value and inhibitory activity (%) was calculated by the following formula. […] Inhibitory activity (%)=100−Enzyme activity (%)

[2] = biological target: T1, α-amylase derived from pancreas of pig (Sus scrofa, UniProt P00690); assay: Inhibitory activity against α-amylase derived from pancreas of pig (same method); assay type: biochemical
T1 construct: the α-amylase derived from pancreas of pig; from tissue; host or cells: pig pancreas
T1 sequence (P00690 16-511): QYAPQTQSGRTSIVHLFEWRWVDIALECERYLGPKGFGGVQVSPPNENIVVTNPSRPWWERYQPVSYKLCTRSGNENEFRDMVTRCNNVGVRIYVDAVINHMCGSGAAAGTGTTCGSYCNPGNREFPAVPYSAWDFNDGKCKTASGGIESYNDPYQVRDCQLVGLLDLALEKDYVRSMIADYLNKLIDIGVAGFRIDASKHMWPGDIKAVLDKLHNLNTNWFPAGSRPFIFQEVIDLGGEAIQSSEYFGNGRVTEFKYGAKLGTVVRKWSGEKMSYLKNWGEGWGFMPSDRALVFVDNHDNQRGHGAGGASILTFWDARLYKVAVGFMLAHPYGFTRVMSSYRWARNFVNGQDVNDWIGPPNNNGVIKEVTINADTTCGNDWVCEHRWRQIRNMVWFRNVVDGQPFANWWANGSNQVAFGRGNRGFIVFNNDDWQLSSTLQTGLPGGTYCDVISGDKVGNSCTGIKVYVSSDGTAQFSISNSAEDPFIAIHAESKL

Compound	IC50 (50% inhibitory concentration) against α-glucosidase [1] [µg/mL]	IC50 [2] [µM]	IC50 ([2]; read-out: IC50 against the α-amylase derived from pancreas of pig (converted)) [µM]
O=c1oc2c(O)c(O)cc3c(=O)oc4c(O)c(O)cc1c4c23 [Ellagic acid]	>80		
O=C(O)c1cc(O)c(O)c(O)c1 [Gallic acid]	800 (≈ 4700 µM)	2350	
O=C(OC[C@H]1O[C@@H](OC(=O)c2cc(O)c(O)c(O)c2)[C@H](OC(=O)c2cc(O)c(O)c(O)c2)[C@@H](OC(=O)c2cc(O)c(O)c(O)c2)[C@@H]1OC(=O)c1cc(O)c(O)c(O)c1)c1cc(O)c(O)c(O)c1 [Pentagalloylglucose]			21.3
Catechin	800		
